Laboratory results taken from US8415469B2, “Compounds and methods for kinase modulation, and indications therefor” (Plexxikon Inc., priority 2005, dated 2013).

How the values were obtained:
Assay type in all cases: biochemical
[1] = biological target: T1, c-Raf-1 (Homo sapiens, UniProt P04049); experiment: AlphaScreen kinase assay, c-Raf-1; settings: read-out: IC50, activity toward kinase c-Raf-1
T1 construct: purchased Upstate Biotechnology

[2] = biological target: T2, Pyk2 (Homo sapiens, UniProt Q14289); experiment: AlphaScreen kinase assay, Pyk2; settings: read-out: IC50, activity toward kinase Pyk2
T2 construct: purchased Upstate Biotechnology

[3] = biological target: T3, Fms (Homo sapiens, UniProt P07333); experiment: AlphaScreen kinase assay, Fms; settings: read-out: IC50, activity toward kinase Fms
T3 construct: purchased Upstate Biotechnology
T3 sequence (P07333 20-972): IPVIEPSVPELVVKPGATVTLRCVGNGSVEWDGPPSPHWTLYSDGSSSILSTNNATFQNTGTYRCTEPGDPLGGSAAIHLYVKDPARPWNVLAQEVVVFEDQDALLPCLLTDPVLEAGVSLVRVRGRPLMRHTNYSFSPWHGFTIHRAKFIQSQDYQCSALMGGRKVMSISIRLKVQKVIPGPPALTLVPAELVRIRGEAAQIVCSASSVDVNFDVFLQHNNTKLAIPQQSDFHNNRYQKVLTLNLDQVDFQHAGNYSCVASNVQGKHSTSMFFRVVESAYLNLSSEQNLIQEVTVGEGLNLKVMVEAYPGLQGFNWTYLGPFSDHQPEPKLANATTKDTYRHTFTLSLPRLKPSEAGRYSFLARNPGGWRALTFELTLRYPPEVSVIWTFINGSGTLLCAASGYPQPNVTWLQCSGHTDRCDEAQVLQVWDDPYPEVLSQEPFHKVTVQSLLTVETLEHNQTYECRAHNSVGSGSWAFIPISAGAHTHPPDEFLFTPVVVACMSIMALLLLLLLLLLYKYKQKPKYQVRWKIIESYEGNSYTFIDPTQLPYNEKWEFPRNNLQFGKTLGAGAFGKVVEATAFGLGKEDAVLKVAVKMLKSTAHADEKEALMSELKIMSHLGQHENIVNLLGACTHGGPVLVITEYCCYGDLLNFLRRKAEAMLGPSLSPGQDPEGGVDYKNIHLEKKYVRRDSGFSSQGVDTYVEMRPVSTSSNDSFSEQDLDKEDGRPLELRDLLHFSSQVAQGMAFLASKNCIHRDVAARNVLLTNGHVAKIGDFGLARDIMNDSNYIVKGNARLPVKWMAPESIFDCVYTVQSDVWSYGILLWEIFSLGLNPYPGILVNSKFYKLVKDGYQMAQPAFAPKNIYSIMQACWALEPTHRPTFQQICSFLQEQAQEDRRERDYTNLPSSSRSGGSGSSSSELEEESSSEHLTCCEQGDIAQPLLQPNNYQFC

[4] = biological target: T4, Fak (Homo sapiens, UniProt Q05397); experiment: AlphaScreen kinase assay, Fak; settings: read-out: IC50, activity toward kinase Fak
T4 construct: P1358.pFastBacHtb FAK S411-Q686-X; His6 with pFastBacHTb leader (TEV site) (N); made in house; host or cells: Sf9 (baculovirus)
T4 sequence (Q05397 411-686): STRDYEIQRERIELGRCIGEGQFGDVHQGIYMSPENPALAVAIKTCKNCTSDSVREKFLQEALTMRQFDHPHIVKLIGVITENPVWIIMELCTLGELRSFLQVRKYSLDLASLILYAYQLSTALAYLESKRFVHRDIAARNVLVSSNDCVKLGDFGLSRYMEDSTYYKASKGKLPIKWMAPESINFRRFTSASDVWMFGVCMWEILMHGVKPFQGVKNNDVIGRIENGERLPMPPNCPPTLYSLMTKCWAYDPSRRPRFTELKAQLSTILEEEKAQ

[5] = biological target: T5, Kit (Homo sapiens, UniProt P10721); experiment: AlphaScreen kinase assay, Kit; settings: read-out: IC50, activity toward kinase Kit
T5 construct: P1332.N6 BI PTP KIT M552-K948-X COD; His6 (N); made in house; host or cells: E. coli (PTP1B co-expressed)
T5 sequence (P10721 with tags, fused parts or gaps): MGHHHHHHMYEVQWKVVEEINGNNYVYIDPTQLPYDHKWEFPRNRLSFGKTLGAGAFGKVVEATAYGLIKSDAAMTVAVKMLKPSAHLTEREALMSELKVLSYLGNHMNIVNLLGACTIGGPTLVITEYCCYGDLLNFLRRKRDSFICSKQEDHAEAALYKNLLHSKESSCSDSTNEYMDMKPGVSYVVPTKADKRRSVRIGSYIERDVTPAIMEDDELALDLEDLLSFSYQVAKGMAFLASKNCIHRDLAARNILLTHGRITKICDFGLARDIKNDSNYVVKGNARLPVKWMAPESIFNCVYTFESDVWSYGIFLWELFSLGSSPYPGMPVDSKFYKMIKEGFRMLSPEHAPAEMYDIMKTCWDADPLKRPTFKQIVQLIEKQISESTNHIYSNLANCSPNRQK

[6] = biological target: T6, B-Raf (Homo sapiens, UniProt P15056); experiment: AlphaScreen kinase assay, B-Raf; settings: read-out: IC50, activity toward kinase B-Raf
T6 construct: purchased Upstate Biotechnology
T6 sequence (P15056 whole entry): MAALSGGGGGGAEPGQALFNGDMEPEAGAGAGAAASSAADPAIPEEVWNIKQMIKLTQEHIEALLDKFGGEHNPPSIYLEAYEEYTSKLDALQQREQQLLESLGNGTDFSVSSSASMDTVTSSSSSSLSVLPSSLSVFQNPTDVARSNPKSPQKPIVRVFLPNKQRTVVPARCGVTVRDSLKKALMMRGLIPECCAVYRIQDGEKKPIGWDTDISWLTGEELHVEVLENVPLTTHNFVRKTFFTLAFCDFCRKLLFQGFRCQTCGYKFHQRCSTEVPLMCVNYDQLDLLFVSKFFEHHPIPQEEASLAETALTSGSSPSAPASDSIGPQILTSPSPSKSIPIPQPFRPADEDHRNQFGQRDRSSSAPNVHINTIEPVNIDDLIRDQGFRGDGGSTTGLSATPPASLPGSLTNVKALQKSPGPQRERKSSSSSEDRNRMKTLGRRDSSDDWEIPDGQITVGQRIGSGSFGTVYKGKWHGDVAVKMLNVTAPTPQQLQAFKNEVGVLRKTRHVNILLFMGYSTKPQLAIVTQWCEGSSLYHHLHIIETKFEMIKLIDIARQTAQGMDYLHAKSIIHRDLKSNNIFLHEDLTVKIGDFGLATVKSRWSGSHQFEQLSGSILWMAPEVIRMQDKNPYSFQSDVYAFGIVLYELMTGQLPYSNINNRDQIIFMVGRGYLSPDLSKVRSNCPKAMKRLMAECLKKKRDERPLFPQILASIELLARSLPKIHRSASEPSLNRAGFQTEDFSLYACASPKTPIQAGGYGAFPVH

[7] = biological target: T7, Src (Homo sapiens, UniProt P12931); experiment: AlphaScreen kinase assay, Src; settings: read-out: IC50, activity toward kinase Src
T7 construct: P1144. pET-N6 BI-PTP SRC V86-L536-X; made in house
T7 sequence (P12931 with tags, fused parts or gaps): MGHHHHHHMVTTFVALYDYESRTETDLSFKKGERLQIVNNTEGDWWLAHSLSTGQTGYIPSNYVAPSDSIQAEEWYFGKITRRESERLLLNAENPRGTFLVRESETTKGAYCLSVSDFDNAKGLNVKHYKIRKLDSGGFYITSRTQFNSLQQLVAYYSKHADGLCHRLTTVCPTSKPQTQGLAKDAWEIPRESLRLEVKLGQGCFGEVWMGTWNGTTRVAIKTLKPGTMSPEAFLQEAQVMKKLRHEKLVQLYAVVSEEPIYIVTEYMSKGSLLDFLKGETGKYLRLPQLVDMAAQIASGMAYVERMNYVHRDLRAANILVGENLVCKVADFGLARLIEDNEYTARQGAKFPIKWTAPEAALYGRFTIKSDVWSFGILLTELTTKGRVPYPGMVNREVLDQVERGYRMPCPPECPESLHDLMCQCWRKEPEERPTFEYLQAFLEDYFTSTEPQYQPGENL

[8] = biological target: T8, FGFR1 (Homo sapiens, UniProt P11362, C488A/C584S); experiment: AlphaScreen kinase assay, FGFR1; settings: read-out: IC50, activity toward kinase FGFR
T8 construct: P1351.pET N6 BI-PTP FGFR A458-E765-X C488A, C584S; made in house; host or cells: E. coli (PTP1B co-expressed)
T8 sequence (P11362 458-765 C488A/C584S): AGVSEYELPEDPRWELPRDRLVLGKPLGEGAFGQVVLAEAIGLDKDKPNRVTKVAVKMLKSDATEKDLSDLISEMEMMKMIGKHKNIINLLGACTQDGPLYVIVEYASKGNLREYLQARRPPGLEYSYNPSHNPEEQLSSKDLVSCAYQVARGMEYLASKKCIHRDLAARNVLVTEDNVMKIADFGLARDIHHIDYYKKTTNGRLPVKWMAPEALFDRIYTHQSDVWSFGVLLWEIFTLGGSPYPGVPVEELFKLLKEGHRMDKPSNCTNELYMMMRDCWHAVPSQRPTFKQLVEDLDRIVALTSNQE

[9] = biological target: T9, Ret (Homo sapiens, UniProt P07949); experiment: AlphaScreen kinase assay, Ret; settings: read-out: IC50, activity toward kinase Ret
T9 construct: P1378.pET-SF BI-PTP RET H661-R1012 HIS; made in house
T9 sequence (P07949 with tags, fused parts or gaps): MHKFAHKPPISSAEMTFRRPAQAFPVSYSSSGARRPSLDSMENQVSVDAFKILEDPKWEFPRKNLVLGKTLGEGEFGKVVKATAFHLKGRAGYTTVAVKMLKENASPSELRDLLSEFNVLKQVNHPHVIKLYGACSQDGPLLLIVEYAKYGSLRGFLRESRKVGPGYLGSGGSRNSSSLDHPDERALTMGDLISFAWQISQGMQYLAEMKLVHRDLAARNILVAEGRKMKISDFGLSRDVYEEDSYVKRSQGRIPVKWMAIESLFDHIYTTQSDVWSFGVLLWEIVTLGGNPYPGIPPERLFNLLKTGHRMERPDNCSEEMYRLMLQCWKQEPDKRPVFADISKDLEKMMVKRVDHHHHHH

[10] = biological target: T10, B-Raf V600E (Homo sapiens, UniProt P15056, V600E); experiment: AlphaScreen kinase assay, B-Raf V600E; settings: read-out: IC50, activity toward kinase B-Raf V600E
T10 construct: P4254. pFastBacBD-CDC37 BRAF D437-K722-X, V600E; His6 with pFastBac HT leader (TEV site) (N); made in house; host or cells: Sf9 (baculovirus; chaperone CDC37 co-expressed)
T10 sequence (P15056 with tags, fused parts or gaps V600E): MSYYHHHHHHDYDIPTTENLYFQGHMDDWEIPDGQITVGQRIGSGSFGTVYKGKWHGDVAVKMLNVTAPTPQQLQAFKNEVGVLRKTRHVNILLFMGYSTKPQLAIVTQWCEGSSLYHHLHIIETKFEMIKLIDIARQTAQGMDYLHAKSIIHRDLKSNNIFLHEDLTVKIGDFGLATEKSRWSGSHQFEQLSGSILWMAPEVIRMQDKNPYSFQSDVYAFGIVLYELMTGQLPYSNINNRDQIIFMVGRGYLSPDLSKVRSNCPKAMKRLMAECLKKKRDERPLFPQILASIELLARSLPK

[11] = biological target: T11, Jnk1 (Homo sapiens, UniProt P45983); experiment: AlphaScreen kinase assay, Jnk1; settings: read-out: IC50, activity toward kinase Jnk1
T11 construct: purchased Upstate Biotechnology
T11 sequence (P45983 whole entry): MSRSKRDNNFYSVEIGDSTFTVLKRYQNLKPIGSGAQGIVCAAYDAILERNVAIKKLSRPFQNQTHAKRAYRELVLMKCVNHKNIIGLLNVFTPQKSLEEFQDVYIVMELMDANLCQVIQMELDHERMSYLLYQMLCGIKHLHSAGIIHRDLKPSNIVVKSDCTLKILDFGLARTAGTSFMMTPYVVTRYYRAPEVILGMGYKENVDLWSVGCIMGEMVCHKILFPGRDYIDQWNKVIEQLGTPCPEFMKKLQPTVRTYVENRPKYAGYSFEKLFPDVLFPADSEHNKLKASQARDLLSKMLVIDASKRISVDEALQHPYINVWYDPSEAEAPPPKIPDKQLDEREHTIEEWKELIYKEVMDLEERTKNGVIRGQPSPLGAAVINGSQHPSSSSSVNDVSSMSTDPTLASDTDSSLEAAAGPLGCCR

[12] = biological target: T12, Jnk3 (Homo sapiens, UniProt P53779); experiment: AlphaScreen kinase assay, Jnk3; settings: read-out: IC50, activity toward kinase Jnk3
T12 construct: purchased Upstate Biotechnology

[13] = biological target: T13, Flt1 (Homo sapiens, UniProt P17948); experiment: AlphaScreen kinase assay, Flt1; settings: read-out: IC50, activity toward kinase Flt1
T13 construct: P1826.pETN6 BI-PTP FLT1 M799-D1165-X WT; His6 (N); made in house; host or cells: E. coli (PTP1B co-expressed)
T13 sequence (P17948 with tags, fused parts or gaps): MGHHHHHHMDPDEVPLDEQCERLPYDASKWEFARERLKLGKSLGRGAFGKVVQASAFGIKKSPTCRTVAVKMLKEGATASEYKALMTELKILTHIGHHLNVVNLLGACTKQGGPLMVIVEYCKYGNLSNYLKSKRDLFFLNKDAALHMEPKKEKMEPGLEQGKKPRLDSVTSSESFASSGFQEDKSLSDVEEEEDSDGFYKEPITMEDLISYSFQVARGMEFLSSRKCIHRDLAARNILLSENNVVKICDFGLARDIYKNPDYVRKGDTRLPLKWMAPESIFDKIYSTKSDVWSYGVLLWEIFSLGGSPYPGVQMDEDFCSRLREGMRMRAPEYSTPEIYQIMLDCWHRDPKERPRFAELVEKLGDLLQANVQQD

T1 sequence (P04049 whole entry): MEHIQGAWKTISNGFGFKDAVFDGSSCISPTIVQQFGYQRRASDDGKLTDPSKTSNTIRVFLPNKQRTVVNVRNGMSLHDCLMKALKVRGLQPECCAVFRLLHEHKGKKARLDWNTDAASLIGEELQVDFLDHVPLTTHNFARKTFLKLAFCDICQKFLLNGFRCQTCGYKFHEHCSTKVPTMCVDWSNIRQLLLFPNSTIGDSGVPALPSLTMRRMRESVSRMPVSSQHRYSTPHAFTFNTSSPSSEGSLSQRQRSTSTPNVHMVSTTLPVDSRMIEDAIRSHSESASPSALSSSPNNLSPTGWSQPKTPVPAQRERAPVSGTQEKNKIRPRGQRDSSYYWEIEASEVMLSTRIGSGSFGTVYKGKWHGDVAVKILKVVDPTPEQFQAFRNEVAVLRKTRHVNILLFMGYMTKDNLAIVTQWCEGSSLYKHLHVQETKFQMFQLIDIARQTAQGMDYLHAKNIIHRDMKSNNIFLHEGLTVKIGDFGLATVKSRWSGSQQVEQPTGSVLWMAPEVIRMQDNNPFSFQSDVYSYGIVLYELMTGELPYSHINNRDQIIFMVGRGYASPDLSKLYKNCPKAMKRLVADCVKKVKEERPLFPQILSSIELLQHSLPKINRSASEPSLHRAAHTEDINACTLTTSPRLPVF

IC50 [1]	IC50 [2]	IC50 [3]	IC50 [4]	IC50 [5]	IC50 [6]	IC50 [7]	IC50 [8]	IC50 [9]	IC50 [10]	IC50 [11]	IC50 [12]	IC50 [13]	SMILES
≤ 10 µM	≤ 10 µM	≤ 10 µM	≤ 10 µM	≤ 10 µM	≤ 10 µM	≤ 10 µM	≤ 10 µM	≤ 10 µM	≤ 10 µM				O=C(Nc1ccc(F)c(Cc2c[nH]c3ncc(-c4cccnc4)cc23)c1F)OCc1ccccc1 [Compound P-0396, [2,4-Difluoro-3-(5-pyridin-3-yl-1H-pyrrolo[2,3-b]pyridin-3-ylmethyl)-phenyl]-carbamic acid benzyl ester]
≤ 10 µM	≤ 10 µM	≤ 10 µM	≤ 10 µM	≤ 10 µM	≤ 10 µM	≤ 10 µM	≤ 10 µM		≤ 10 µM				CCCS(=O)(=O)Nc1ccc(F)c(Cc2c[nH]c3ncc(Nc4ccccc4)cc23)c1F [Compound P-0818, Propane-1-sulfonic acid [2,4-difluoro-3-(5-phenylamino-1H-pyrrolo[2,3-b]pyridin-3-ylmethyl)-phenyl]-amide]
≤ 10 µM	≤ 10 µM	≤ 10 µM	≤ 10 µM	≤ 10 µM	≤ 10 µM	≤ 10 µM	≤ 10 µM		≤ 10 µM				CN(C)S(=O)(=O)Nc1ccc(F)c(C(=O)c2c[nH]c3ncc(-c4cccnc4)cc23)c1F [Compound P-0837, Dimethylamine-1-sulfonic acid [3-(5-pyridin-3-yl-1H-pyrrolo[2,3-b]pyridine-3-carbonyl)-2,4-difluoro-phenyl]-amide]
≤ 10 µM	≤ 10 µM	≤ 10 µM		≤ 10 µM	≤ 10 µM	≤ 10 µM	≤ 10 µM		≤ 10 µM	≤ 10 µM			CCCS(=O)(=O)Nc1ccc(F)c(C(=O)c2c[nH]c3ncc(Nc4ccccc4)cc23)c1F [Compound P-0848, propane-1-sulfonic acid [2,4-difluoro-3-(5-phenylamino-1H-pyrrolo[2,3-b]pyridine-3-carbonyl)-phenyl]-amide]
≤ 10 µM	≤ 10 µM	≤ 10 µM		≤ 10 µM	≤ 10 µM	≤ 10 µM	≤ 10 µM		≤ 10 µM				CN(C)S(=O)(=O)Nc1ccc(F)c(C(=O)c2c[nH]c3ncc(-c4ccccc4)cc23)c1F [Compound P-0857]
≤ 10 µM	≤ 10 µM	≤ 10 µM	≤ 10 µM	≤ 10 µM	≤ 10 µM		≤ 10 µM		≤ 10 µM				CC(C)S(=O)(=O)Nc1ccc(F)c(Cc2c[nH]c3ncc(Br)cc23)c1F [Compound P-0867, Propane-2-sulfonic acid [3-(5-bromo-1H-pyrrolo[2,3-b]pyridin-3-ylmethyl)-2,4-difluoro-phenyl]-amide]
≤ 10 µM	≤ 10 µM	≤ 10 µM		≤ 10 µM	≤ 10 µM	≤ 10 µM	≤ 10 µM		≤ 10 µM				CCCS(=O)(=O)Nc1ccc(F)c(C(=O)c2c[nH]c3ncc(-c4cccc(OC)c4)cc23)c1F [Compound P-0874, Propane-1-sulfonic acid {2,4-difluoro-3-[5-(3-methoxy-phenyl)-1H-pyrrolo[2,3-b]pyridine-3-carbonyl]-phenyl}-amide]
≤ 10 µM	≤ 10 µM	≤ 10 µM		≤ 10 µM	≤ 10 µM	≤ 10 µM	≤ 10 µM		≤ 10 µM				CN(C)S(=O)(=O)Nc1ccc(F)c(C(=O)c2c[nH]c3ncc(Br)cc23)c1F [Compound P-0898, Dimethylamine-1-sulfonic acid [3-(5-bromo-1H-pyrrolo[2,3-b]pyridine-3-carbonyl)-2,4-difluoro-phenyl]-amide]
≤ 10 µM	≤ 10 µM		≤ 10 µM	≤ 10 µM	≤ 10 µM	≤ 10 µM	≤ 10 µM		≤ 10 µM				CCCS(=O)(=O)Nc1ccc(F)c(Cc2c[nH]c3ncc(Br)cc23)c1F [Compound P-0910, Propane-1-sulfonic acid [3-(5-bromo-1H-pyrrolo[2,3-b]pyridin-3-ylmethyl)-2,4-difluoro-phenyl]-amide]
≤ 10 µM	≤ 10 µM	≤ 10 µM	≤ 10 µM	≤ 10 µM	≤ 10 µM		≤ 10 µM		≤ 10 µM				CCCS(=O)(=O)Nc1ccc(F)c(Cc2c[nH]c3ncc(-c4ccccc4)cc23)c1F [Compound P-0911, Propane-1-sulfonic acid [2,4-difluoro-3-(5-phenyl-1H-pyrrolo[2,3-b]pyridin-3-ylmethyl)-phenyl]-amide]
	≤ 10 µM	≤ 10 µM	≤ 10 µM	≤ 10 µM	≤ 10 µM	≤ 10 µM	≤ 10 µM		≤ 10 µM	≤ 10 µM			CCCC(=O)Nc1ccc(F)c(Cc2c[nH]c3ncc(-c4cccc(C(N)=O)c4)cc23)c1F [Compound P-1281]
	≤ 10 µM	≤ 10 µM	≤ 10 µM		≤ 10 µM		≤ 10 µM		≤ 10 µM				CCCC(=O)Nc1ccc(F)c(Cc2c[nH]c3ncc(Br)cc23)c1F [Compound P-1282]
≤ 10 µM	≤ 10 µM	≤ 10 µM	≤ 10 µM	≤ 10 µM		≤ 10 µM	≤ 10 µM		≤ 10 µM				CCCS(=O)(=O)Nc1ccc(F)c(Cc2c[nH]c3ncc(OC)cc23)c1F [Compound P-1316]
	≤ 10 µM		≤ 10 µM	≤ 10 µM	≤ 10 µM	≤ 10 µM	≤ 10 µM		≤ 10 µM	≤ 10 µM	≤ 10 µM		Nc1cccc(-c2cnc3[nH]cc(Cc4ccccc4F)c3c2)c1 [Compound P-1349]
≤ 10 µM	≤ 10 µM	≤ 10 µM	≤ 10 µM	≤ 10 µM	≤ 10 µM		≤ 10 µM		≤ 10 µM	≤ 10 µM		≤ 10 µM	CCCC(=O)Nc1ccc(F)c(C(=O)c2c[nH]c3ncc(-c4cccc(C(N)=O)c4)cc23)c1F [Compound P-1365]
	≤ 10 µM	≤ 10 µM		≤ 10 µM					≤ 10 µM	≤ 10 µM		≤ 10 µM	CCCC(=O)Nc1ccc(F)c(C(=O)c2c[nH]c3ncc(OC)cc23)c1F [Compound P-1370]
